Data published in ChEMBL document CHEMBL3137381, “MMV Box Onchocerca lienalis screening set”.

Tests used:
Type in all cases: functional
Onchocerca lienalis [1] = experiment: MMV: Percent motility assay at a compound concentration of 3.1e-6 M. Activity score legend: 3: Active, 2: Moderately active; 1: Inactive, 0: Toxic; conditions: at 3.1 µM
Onchocerca lienalis [2] = experiment: MMV: Percent motility assay at a compound concentration of 1.9e-7 M. Activity score legend: 3: Active, 2: Moderately active; 1: Inactive, 0: Toxic; conditions: at 0.19 µM
Onchocerca lienalis [3] = experiment: MMV: Percent motility assay at a compound concentration of 7.8e-7 M. Activity score legend: 3: Active, 2: Moderately active; 1: Inactive, 0: Toxic; conditions: at 0.78 µM
Onchocerca lienalis [4] = experiment: MMV: Percent motility assay at a compound concentration of 1.25e-5 M. Activity score legend: 3: Active, 2: Moderately active; 1: Inactive, 0: Toxic; conditions: at 12.5 µM

Row | Compound | Motility (Onchocerca lienalis [1]) | Motility (Onchocerca lienalis [2]) | Motility (Onchocerca lienalis [3]) | Motility (Onchocerca lienalis [4])
1 | CN1CCN(c2ccc(Nc3c4ccccc4nc4ccccc34)cc2)CC1 | 100% | 100% | 100% | 100%
2 | CN(C)CCCNc1c2ccccc2nc2ccccc12 | 100% | 100% | 100% | 100%
3 | COc1ccc(-c2c(C)nn3c(N)c(C#N)cnc23)cc1OC | 100% | 100% | 100% | 100%
4 | CSC1=NC(=Nc2c(C)cccc2C)C2(CCC(C(C)(C)C)CC2)N1c1ccc(Cl)cc1 (stereo not drawn) | 100% | 100% | 100% | 100%
5 | Cc1cc(C)cc(Nc2cc(C)nc3nc(C(F)(F)F)nn23)c1 | 100% | 100% | 100% | 100%
6 | O=C(NCC(c1ccsc1)N1CCCCCC1)c1ccc(C(F)(F)F)cc1 (stereo not drawn) | 100% | 100% | 100% | 100%
7 | COc1ccc(-c2cc3c(SCC(=O)Nc4cc(C(F)(F)F)ccc4Cl)nccn3n2)cc1 | 100% | 100% | 100% | 100%
8 | Cc1ccc(-c2cc3c(SCC(=O)Nc4cc(C(F)(F)F)ccc4Cl)nccn3n2)cc1 | 100% | 100% | 100% | 100%
9 | CCN(CC)CCNc1ccnc2cc(Cl)ccc12 | 100% | 100% | 100% | 100%
10 | CCCCCC(=O)N1c2ccccc2N=C2CC(c3ccc(OC)c(OC)c3)CC(O)=C2C1c1ccc(C(F)(F)F)cc1 (stereo not drawn) | 100% | 100% | 100% | 100%
11 | Cc1cc(Nc2ccc3ccccc3c2)n2ncnc2n1 | 100% | 100% | 100% | 100%
12 | Cc1cc(NCCN2CCCCC2)c2ccc3ccccc3c2n1 | 100% | 100% | 100% | 100%
13 | COc1ccc(-c2nc(NC(=O)CS(=O)(=O)c3ccc(F)cc3)sc2C)cc1 | 100% | 100% | 100% | 100%
14 | O=C(O)C1Cc2c([nH]c3ccccc23)C(c2ccc(Cl)cc2Cl)N1 (stereo not drawn) | 100% | 100% | 100% | 100%
15 | Cc1ccc(N2C(=O)C3C(C2=O)C2(c4ccccc4)C(=O)C3(c3ccccc3)C(c3ccccc3)=C2c2ccccc2)cc1 (stereo not drawn) | 100% | 100% | 100% | 100%
16 | CCc1c(C)c(=N)c2ccccc2n1C.I | 100% | 100% | 100% | 100%
17 | COc1cccc(NC(=O)[C@H](C(C)C)n2c(=O)[nH]c3ccccc3c2=O)c1 | 100% | 100% | 100% | 100%
18 | CCOC(=O)c1cn(CC)c2cc(N(C)CCc3ccc(OC)c(OC)c3)c(F)cc2c1=O | 100% | 100% | 100% | 100%
19 | CCC(c1ccccc1)c1nn2c(-c3cccs3)nnc2s1 (stereo not drawn) | 100% | 100% | 100% | 100%
20 | CC(C)(C)c1ccc(O)c(CNC2CCCCC2)c1 | 100% | 100% | 100% | 100%
21 | O=[N+]([O-])c1ccc(C=NNc2nc3ccccc3[nH]2)cc1 | 100% | 100% | 100% | 100%
22 | CC1CN(C(=O)c2sc3ccccc3c2Cl)CC(C)O1 (stereo not drawn) | 100% | 100% | 100% | 100%
23 | CN(C)c1ccc(C=Cc2nc(=O)c3ccccc3o2)cc1 | 100% | 100% | 100% | 100%
24 | COc1ccc(C2=C(c3ccc(OC)cc3)C3(c4ccccc4)C(=O)C2(c2ccccc2)C2C(=O)N(c4ccc(C)cc4)C(=O)C23)cc1 (stereo not drawn) | 100% | 100% | 100% | 100%
25 | CCOC(=O)c1c(NC(=O)c2ccccc2)sc2c(O)c(CN(CC)CC)ccc12 | 100% | 100% | 100% | 100%
26 | CCOC(=O)C1=C(c2ccccc2)N=c2sc(=Cc3cc(C)n(-c4ccc(F)cc4)c3C)c(=O)n2C1c1cccc(OC)c1OC (stereo not drawn) | 100% | 100% | 100% | 100%

Row | Compound | Motility (Onchocerca lienalis [1]) | Motility (Onchocerca lienalis [2]) | Motility (Onchocerca lienalis [3]) | Motility (Onchocerca lienalis [4])
27 | CCC1(C)CC(CCNCc2ccccc2O)(c2ccc(C)cc2)CCO1 (stereo not drawn) | 100% | 100% | 100% | 100%
28 | OC(CNC1CCCCC1)Cn1c2ccccc2c2ccccc21 (stereo not drawn) | 100% | 100% | 100% | 60%
29 | Cc1cc(Nc2ccc(C)c(Cl)c2)n2nc(C(F)(F)F)nc2n1 | 100% | 100% | 100% | 100%
30 | CCCN(CCC)CC(O)COc1ccccc1C(=O)Nc1ccccc1 (stereo not drawn) | 100% | 100% | 100% | 100%
31 | Fc1ccc2[nH]c3c(NCCCN4CCOCC4)ncnc3c2c1 | 100% | 100% | 100% | 100%
32 | COc1ccc(C=C2SC(=N)N(c3ccccc3OC)C2=O)cc1 | 100% | 100% | 100% | 100%
33 | COc1ccc(NC(=O)C2c3ccccc3C(=O)N(CC(C)C)C2c2cccs2)cc1Cl (stereo not drawn) | 100% | 100% | 100% | 100%
34 | CCOC(=O)c1c(C)n(-c2ccc(Cl)cc2)c2ccc(OC(=O)C=Cc3ccccc3)cc12 | 100% | 100% | 100% | 100%
35 | C=CC12CCN(CC1)C(C(O)c1ccnc3ccc(OC)cc13)C2.Cl (stereo not drawn) | 100% | 100% | 100% | 100%
36 | Cc1cccc(Nc2nc(N)c3ccccc3n2)c1.Cl | 100% | 100% | 100% | 100%
37 | CCn1c(CN2CCN(Cc3ccccc3)CC2)nc2cc(NC(=O)c3cccs3)ccc21 | 100% | 100% | 100% | 100%
38 | COc1ccccc1CNC(=O)CCn1c(=O)[nH]c2ccccc2c1=O | 100% | 100% | 100% | 100%
39 | Cc1cc(C)c2c(c1)OCN(Cc1ccccc1Cl)C2 | 100% | 100% | 100% | 100%
40 | COc1cc(OC)c(N(C)C(=O)c2cc3c(s2)-c2ccccc2S(=O)(=O)C3)cc1Cl | 100% | 100% | 100% | 100%
41 | Cl.Oc1ccccc1CNCC12CC3CC(CC(C3)C1)C2 | 100% | 100% | 100% | 100%
42 | CNCCCNc1ccnc2cc(Cl)ccc12 | 100% | 100% | 100% | 100%
43 | COc1ccccc1CNC(=O)CCn1c(=O)[nH]c2ccsc2c1=O | 100% | 100% | 100% | 100%
44 | COc1ccc(Br)cc1C1Nc2ccc3ccccc3c2C2=C1C(=O)CC(c1ccccc1)C2 (stereo not drawn) | 100% | 100% | 100% | 66.66%
45 | Cc1cc(C=C2SC(=Nc3ccccc3)N(C3CCCC3)C2=O)c(C)n1-c1ccc(Cl)cc1 | 100% | 100% | 100% | 100%
46 | CC1CCN(Cc2ccc(NC(=O)c3cc4ccc5cccnc5c4[nH]3)cc2)CC1 | 100% | 100% | 100% | 100%
47 | CCc1ccc(Nc2cc(C)c3ccc(O)cc3n2)cc1.Cl | 100% | 100% | 100% | 66.66%
48 | CSc1ccccc1C(=O)Nc1nc(-c2ccccn2)cs1 | 100% | 100% | 100% | 33.33%
49 | COc1ccc(C(C)=O)cc1N1C(=O)C2C(C1=O)C1(c3ccccc3)C(=O)C2(c2ccccc2)C(c2ccc(C)cc2)=C1c1ccc(C)cc1 (stereo not drawn) | 100% | 100% | 100% | 100%
50 | CCCc1c(CC)c(=N)c2ccccc2n1C | 100% | 100% | 100% | 100%
51 | CCOC(=O)c1cnc2c(C)cc(C)cc2c1Nc1ccc(OC)c(OC)c1 | 100% | 100% | 100% | 100%
52 | c1ccc(Cn2c(N=Nc3c(Nc4ccccc4)ccc4ccccc34)nc3ccccc32)cc1 | 100% | 100% | 100% | 100%
